The values below come from ChEMBL document CHEMBL4321786, “Discovery of Small Molecule Renal Outer Medullary Potassium (ROMK) Channel Inhibitors: A Brief History of Medicinal Chemistry Approaches To Develop Novel Diuretic Therapeutics” (J Med Chem, 2019).

Each structure is given as a SMILES string.

The target in data set [1] is Sodium-dependent noradrenaline transporter (Homo sapiens) (UniProt P23975). The data set can be described thus: Inhibition of norepinephrine transporter (unknown origin) at 10 uM by radioligand displacement assay relative to control.
Data set [2] has as its system HEK293. The data set can be described thus: Inhibition of hamster SUR1/mouse Kir6.2 expressed in HEK293 cells at 50 uM by patch clamp electrophysiology assay relative to control. Type of data set: cell-based. Background: In patch-clamp work, channel activity is measured electrically.
Data set [3] is described as follows: Inhibition of GABA receptor (unknown origin) by radioligand displacement assay. On the set-up: species or system Homo sapiens. For orientation: Displacement assays read how much labelled ligand stays bound in the presence of the test substance.
Data set [4] can be described thus: Stability in rat liver microsomes assessed as parent compound remaining level. Type of data set: ADME, Microsome.
Data set [5] deals with T1, D(4) dopamine receptor (Homo sapiens) (UniProt P21917).
T1 sequence (whole entry): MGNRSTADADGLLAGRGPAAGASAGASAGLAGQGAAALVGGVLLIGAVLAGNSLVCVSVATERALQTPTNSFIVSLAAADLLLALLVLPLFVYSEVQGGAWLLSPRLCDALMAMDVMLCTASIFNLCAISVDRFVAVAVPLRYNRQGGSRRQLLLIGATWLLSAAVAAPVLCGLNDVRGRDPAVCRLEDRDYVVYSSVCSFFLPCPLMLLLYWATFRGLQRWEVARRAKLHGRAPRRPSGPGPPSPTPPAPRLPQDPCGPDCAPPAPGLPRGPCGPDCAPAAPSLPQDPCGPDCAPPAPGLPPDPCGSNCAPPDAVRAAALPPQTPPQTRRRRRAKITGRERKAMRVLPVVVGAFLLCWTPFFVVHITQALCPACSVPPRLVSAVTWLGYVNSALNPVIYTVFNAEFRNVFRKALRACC
The data set can be described thus: Inhibition of DRD4 (unknown origin) at 10 uM by radioligand displacement assay relative to control.

Data set [6] concerns the target T2, ATP-sensitive inward rectifier potassium channel 1 (Rattus norvegicus, UniProt P35560).
T2 sequence (P35560 whole entry): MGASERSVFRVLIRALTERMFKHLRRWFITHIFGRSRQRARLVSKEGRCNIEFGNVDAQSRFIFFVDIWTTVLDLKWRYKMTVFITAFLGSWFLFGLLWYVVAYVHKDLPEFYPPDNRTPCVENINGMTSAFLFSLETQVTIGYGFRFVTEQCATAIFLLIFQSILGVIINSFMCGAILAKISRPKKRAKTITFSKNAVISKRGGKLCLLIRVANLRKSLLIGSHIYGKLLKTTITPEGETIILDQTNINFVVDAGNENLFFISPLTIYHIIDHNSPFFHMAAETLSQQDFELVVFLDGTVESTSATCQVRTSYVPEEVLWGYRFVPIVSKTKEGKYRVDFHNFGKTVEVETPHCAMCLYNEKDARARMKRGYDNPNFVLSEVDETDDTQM
Kind of data set: Inhibition of rat ROMK1 expressed in HEK293 cells by Tl+ flux assay. Type of data set: cell-based.

The subject of data set [7] is HEK293. The data set can be described thus: Inhibition of hamster SUR1/mouse Kir6.2 expressed in HEK293 cells at 10 uM by patch clamp electrophysiology assay relative to control. Type of data set: cell-based.
Data set [8] is filed under the species Homo sapiens. The data set can be described thus: Inhibition of GABA receptor (unknown origin) at 10 uM by radioligand displacement assay relative to control.
Data set [9] in a line: Protein binding in human plasma. In kind it is ADME, cell-free. Particulars: read-out: PPB (converted).
The nature of data set [10]: Protein binding in rat plasma. Type of data set: ADME, cell-free. The conditions noted are these: read-out: PPB (converted).
Data set [11] is described as follows: Stability in human liver microsomes assessed as parent compound remaining level. Type of data set: ADME, Microsome. In general terms: Liver microsomes are a subcellular fraction often used to study metabolism.
Data set [12] addresses Sodium-dependent dopamine transporter (Homo sapiens) (UniProt Q01959). Kind of data set: Inhibition of dopamine transporter (unknown origin) at 10 uM by radioligand displacement assay relative to control.
Data set [13] deals with T3, ATP-sensitive inward rectifier potassium channel 1 (Homo sapiens, UniProt P48048).
T3 sequence (P48048 whole entry): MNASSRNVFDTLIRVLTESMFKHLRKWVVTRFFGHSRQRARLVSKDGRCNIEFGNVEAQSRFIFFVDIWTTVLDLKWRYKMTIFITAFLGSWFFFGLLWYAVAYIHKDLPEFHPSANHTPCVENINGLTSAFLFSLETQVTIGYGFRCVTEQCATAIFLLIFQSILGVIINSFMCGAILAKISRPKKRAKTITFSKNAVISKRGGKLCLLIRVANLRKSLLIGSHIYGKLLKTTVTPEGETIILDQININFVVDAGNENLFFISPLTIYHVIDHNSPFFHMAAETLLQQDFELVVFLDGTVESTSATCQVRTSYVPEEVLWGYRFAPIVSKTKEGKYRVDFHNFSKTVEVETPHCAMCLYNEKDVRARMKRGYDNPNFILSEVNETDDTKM
Kind of data set: Inhibition of human ROMK1 expressed in CHO cells by Tl+ flux assay. In kind it is cell-based.

In data set [14] the target is T3, ATP-sensitive inward rectifier potassium channel 1. Kind of data set: Inhibition of human ROMK1 expressed in HEK293 cells by Tl+ flux assay. Type of data set: cell-based.
Data set [15] has as its target Voltage-gated inwardly rectifying potassium channel KCNH2 (Homo sapiens, UniProt Q12809). Kind of data set: Inhibition of human ERG.
Data set [16] has as its target T4, Inward rectifier potassium channel 13 (Homo sapiens) (UniProt O60928).
T4 sequence (whole entry): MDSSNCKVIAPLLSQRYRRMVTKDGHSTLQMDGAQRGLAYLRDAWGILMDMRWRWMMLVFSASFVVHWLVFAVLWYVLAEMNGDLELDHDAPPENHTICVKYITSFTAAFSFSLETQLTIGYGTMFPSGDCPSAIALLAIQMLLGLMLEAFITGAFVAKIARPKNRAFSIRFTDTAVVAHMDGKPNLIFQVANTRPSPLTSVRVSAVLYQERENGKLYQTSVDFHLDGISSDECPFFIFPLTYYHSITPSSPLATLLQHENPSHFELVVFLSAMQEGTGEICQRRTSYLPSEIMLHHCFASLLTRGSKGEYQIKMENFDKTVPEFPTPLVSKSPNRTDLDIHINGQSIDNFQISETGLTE
The data set can be described thus: Inhibition human Kir7.1 expressed in HEK293 cells at 10 uM by whole cell patch clamp assay relative to control. Type of data set: cell-based.

Chain of Voltage-gated inwardly rectifying potassium channel KCNH2 (Q12809 whole entry): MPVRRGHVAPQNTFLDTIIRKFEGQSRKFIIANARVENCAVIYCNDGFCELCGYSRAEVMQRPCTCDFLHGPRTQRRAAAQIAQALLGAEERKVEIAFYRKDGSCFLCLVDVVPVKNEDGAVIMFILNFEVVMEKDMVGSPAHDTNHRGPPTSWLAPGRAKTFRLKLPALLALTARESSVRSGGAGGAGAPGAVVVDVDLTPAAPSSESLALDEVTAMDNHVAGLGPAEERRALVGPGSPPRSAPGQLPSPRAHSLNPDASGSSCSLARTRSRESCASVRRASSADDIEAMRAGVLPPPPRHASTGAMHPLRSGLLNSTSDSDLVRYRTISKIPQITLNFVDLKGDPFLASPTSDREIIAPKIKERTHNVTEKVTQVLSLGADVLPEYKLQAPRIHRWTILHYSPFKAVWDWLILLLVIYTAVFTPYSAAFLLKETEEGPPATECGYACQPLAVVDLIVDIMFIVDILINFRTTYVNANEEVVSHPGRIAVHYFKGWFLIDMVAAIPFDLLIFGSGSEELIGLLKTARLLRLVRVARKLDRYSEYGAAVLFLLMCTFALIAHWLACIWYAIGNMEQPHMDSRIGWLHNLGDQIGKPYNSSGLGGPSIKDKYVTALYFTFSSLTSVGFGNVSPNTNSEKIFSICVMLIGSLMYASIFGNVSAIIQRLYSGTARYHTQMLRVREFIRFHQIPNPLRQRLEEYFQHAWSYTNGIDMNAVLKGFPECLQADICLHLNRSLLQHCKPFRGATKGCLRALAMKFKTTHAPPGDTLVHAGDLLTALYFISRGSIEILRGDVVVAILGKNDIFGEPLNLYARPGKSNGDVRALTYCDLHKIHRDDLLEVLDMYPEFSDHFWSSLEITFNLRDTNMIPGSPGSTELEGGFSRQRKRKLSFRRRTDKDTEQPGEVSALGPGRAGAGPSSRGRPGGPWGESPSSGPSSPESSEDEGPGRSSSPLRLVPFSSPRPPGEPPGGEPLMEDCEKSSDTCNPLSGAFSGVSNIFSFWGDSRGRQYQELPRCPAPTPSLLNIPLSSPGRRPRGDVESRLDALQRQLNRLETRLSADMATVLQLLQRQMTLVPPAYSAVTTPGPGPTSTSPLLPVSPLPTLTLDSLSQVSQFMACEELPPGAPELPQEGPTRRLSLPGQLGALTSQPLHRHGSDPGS
Chain of Sodium-dependent dopamine transporter (Homo sapiens) (Q01959 whole entry): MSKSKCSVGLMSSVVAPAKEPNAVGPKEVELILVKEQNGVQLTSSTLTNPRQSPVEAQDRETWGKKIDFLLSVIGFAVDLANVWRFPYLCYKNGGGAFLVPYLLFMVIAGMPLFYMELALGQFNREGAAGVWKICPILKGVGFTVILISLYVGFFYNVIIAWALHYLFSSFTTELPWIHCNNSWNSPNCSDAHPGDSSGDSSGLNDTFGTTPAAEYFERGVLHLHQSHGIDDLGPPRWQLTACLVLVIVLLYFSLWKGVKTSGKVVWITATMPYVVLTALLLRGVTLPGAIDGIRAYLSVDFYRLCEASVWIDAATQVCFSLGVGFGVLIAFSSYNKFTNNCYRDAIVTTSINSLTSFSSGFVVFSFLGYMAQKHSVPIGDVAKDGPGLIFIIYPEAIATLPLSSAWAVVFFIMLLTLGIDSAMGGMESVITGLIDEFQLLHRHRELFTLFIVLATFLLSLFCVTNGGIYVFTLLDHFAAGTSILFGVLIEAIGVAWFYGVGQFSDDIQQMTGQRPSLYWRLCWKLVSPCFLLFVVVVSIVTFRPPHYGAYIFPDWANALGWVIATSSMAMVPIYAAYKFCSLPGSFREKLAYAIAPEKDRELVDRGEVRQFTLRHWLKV
Chain of Sodium-dependent noradrenaline transporter (Homo sapiens) (P23975 whole entry): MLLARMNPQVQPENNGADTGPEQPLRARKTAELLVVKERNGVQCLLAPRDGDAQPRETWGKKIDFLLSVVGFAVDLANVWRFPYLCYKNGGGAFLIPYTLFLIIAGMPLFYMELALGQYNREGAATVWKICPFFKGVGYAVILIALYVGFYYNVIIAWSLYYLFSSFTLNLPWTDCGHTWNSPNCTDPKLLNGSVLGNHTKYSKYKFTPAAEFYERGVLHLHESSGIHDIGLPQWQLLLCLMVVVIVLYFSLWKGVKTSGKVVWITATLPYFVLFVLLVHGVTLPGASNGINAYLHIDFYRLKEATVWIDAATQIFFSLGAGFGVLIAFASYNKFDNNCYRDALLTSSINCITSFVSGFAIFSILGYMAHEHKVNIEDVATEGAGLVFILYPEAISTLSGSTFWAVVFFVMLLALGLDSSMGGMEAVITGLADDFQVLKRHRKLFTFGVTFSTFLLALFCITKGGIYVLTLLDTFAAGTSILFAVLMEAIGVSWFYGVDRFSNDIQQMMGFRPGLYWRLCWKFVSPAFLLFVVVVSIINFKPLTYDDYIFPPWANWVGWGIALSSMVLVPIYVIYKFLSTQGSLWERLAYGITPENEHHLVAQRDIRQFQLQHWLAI

For orientation: inhibition means the drop in the measured response relative to a control, in per cent. Lower therefore signals a weak effect. What is called IC50 is the concentration that gives 50% inhibition. Higher therefore signals weaker potency in that assay. In the case of `O=[N+]([O-])c1ccc2nc(COCc3nc4ccc([N+](=O)[O-])cc4[nH]3)[nH]c2c1`, the inhibition is above 50% in [1]; 28% in data set [2]; above 50% in [5]; 17% in data set [7]; above 50% in data set [8]; above 50% in data set [12]. For the same molecule, the IC50 in [3] came to 6.2 µM; in data set [6] it was 240 nM. The Stability in [4] is listed as 60%; in data set [11] it was 80%. The fraction unbound in [9] was 0.0086; in data set [10] it was 0.0161.
As for `Cc1c([C@@H]2CN(Cc3ccc(-n4cc(C#N)cn4)cn3)CCN2)ccc2c1COC2=O`, the IC50 in data set [13] was found to be 8.8 nM.
`CC1=C(N2CCC3(CCN(C[C@@H](O)c4ccc5c(c4Cl)Cn4nnnc4-5)CC3)C2=O)COC1=O` displayed an IC50 in data set [6] of 9 nM.
`Cc1c(C(O)CN2CCc3nc(-n4ncc5c(C#N)cccc54)ncc3C2)ccc2c1COC2=O` (stereo not given) showed an IC50 in data set [13] of 38 nM.
As to `O=C1OCCc2cc([C@@H]3CN4CCN(C(=O)Cc5ccc(-n6cnnn6)cc5)C[C@H]4CO3)ccc21`, the IC50 in data set [14] stood at 57 nM; in data set [15], 75.9 µM.
Turning to `Cc1c(C#N)cccc1[C@@H]1CN2CCN(C(=O)Cc3ccc(-n4cnnn4)cc3)C[C@H]2CO1`, the figures for the IC50 in [14] and in [15] were 60 nM and 14.8 µM, respectively.
As for `CCOc1cc(-n2cc(CNC[C@H](O)c3ccc4c(c3C)COC4=O)cn2)ccc1C#N`, half-maximal inhibition in [13] (IC50) required 6.2 nM.
As to `O=[N+]([O-])c1ccc2[nH]c(CCCc3nc4cc([N+](=O)[O-])ccc4[nH]3)nc2c1`, half-maximal inhibition in data set [6] (IC50) was put at 8000 nM. In other words, the single-digit micromolar range.
Still for that read-out and setting: to `CC1=C(N2CCC3(CCN(C[C@H](O)c4ccc5c(c4)Cn4nnnc4-5)C[C@H]3F)C2=O)COC1=O` (stereo not given in full) belongs 43 nM.
As for `O=C1OCc2cc(C3CN4CCN(C(=O)Cc5ccc(-n6cnnn6)cc5)CC4CO3)ccc21` (stereo not given), the IC50 lay within 65 to 105 nM in data set [14] and 21.1 to 59.4 µM in [15].
Take `C[C@H]1CC2(CCN(C[C@@H](O)c3ccc4c(ccc5nnnn54)c3)CC2)C(=O)N1C1=CC(=O)OC1`: the midpoint of inhibition in data set [6], the IC50, lay at 10 nM.
Regarding `CC1=C(N2CCC3(CCN(CCc4ccc5c(c4)Cn4nnnc4-5)CC3)C2=O)COC1=O`, in data set [6], the IC50 came to 6 nM.
In data set [13], `Cc1cc(-c2ncc(CNC[C@H](O)c3ccc4c(c3C)COC4=O)s2)ccc1C#N` showed an IC50 of 6.6 nM.
On to `CC1=C(N2CCC3(CCN(CC(CO)c4ccc5c(ccc6nnnn65)c4)CC3)C2=O)COC1=O` (stereo not given), for which 18 nM corresponded to half-maximal inhibition in data set [6] (IC50).
Consider `O=[N+]([O-])c1ccc(CN2CCOCCOCCN(Cc3ccc([N+](=O)[O-])cc3)CCOCC2)cc1`, for which the inhibition in data set [16] was found to be 69%. The molecule further showed an IC50 in data set [6] of 294 nM.
